Data set [1] is described as follows: Suspension competition test of mixed crystalline forms A/B/C/D in saturated solution (thermodynamic transition). Format: physicochemical. How it is done:
To study the thermodynamic transition relationship of the four anhydrous polymorphs (respectively corresponding to A/B/C/D), samples (each sample was about 5 mg) having crystalline forms A/B/C/D were mixed and added respectively under the conditions of 5° C./room temperature (about 20° C.)/50° C./90° C. to a saturated solution of the compound of formula I (for example, ethanol or methyl tert-butyl ether) (about 1.0 mL), and stirred (magnetic stirring, about 800 rpm). solid was separated (centrifugation, about 10000 rpm, 1 min), and XRPD test was performed.

Data set [2] can be described thus: Heat treatment test under nitrogen protection (crystal transformation). The class given is physicochemical. The following applies: for crystal transformation on heating: nitrogen. An excerpt: At the same time, the above crystal transformation phenomenon can also be confirmed by the absorption/exothermic peaks appearing in FIG. 7 and FIG. 11.
A short description of data set [3]: Dynamic vapor sorption (DVS) hygroscopicity evaluation, with XRPD before and after. The class given is physicochemical. The method, then:
The DVS curves were collected on a DVS Intrinsic Dynamic Moisture Sorption meter from SMS (Surface Measurement Systems). The relative humidity at 25° C. was corrected with the deliquescence points of LiCl, Mg (NO3)2 and KCl.

Data set [4] can be described thus: Solid-state stability, one week storage, tested by XRPD and HPLC. The note with it: for Purity (Peak area %) / Relative purity (%/Control): one week; for Purity (Peak area %): HPLC; for Relative purity (%/Control): vs 5° C. sealed control. Format: physicochemical. The source says:
Samples were removed after one week, and the obtained samples were characterized and tested by XRPD and HPLC to respectively detect changes in crystalline form and purity.

A short description of data set [5]: Pharmacokinetic study, skin application to SD rats. The class given is in vivo, SD rats (Sprague-Dawley rats). The following applies: for ratio of AUC(0-t) on day 7 to day 1: 12 mg/kg skin application once a day for 7 days. The source says: The obtained blood concentration data were simultaneously used to calculate the relevant pharmacokinetic parameters using the pharmacokinetic processing software WinNonlin v5.2 […] for plasma pharmacokinetic characterization analysis.

As to `COc1c(C#N)ccc(N2C(=O)C(C)(C)N(c3ccc(C)nc3)C2=S)c1F` [crystalline form A, 4-[4,4-dimethyl-3-(6-methylpyridin-3-yl)-5-oxo-2-thioxoimidazolidin-1-yl]-3-fluoro-2-methoxybenzonitrile], the “crystal transformation by suspension agitation” value in data set [1] (less than 90° C.) was “transformed into the form D”. The “crystal transformation on heating” value in data set [2] (heated to about 160° C. and then cooled to room temperature) was “transformed into crystalline form B”.
Regarding `COc1c(C#N)ccc(N2C(=O)C(C)(C)N(c3ccc(C)nc3)C2=S)c1F` [crystalline form B, 4-[4,4-dimethyl-3-(6-methylpyridin-3-yl)-5-oxo-2-thioxoimidazolidin-1-yl]-3-fluoro-2-methoxybenzonitrile], the “relative stability of the crystalline form” value in data set [2] (under heating conditions) is reported as “more stable than crystalline forms A/C”.
As to `COc1c(C#N)ccc(N2C(=O)C(C)(C)N(c3ccc(C)nc3)C2=S)c1F` [crystalline form C, 4-[4,4-dimethyl-3-(6-methylpyridin-3-yl)-5-oxo-2-thioxoimidazolidin-1-yl]-3-fluoro-2-methoxybenzonitrile], the “crystal transformation on heating” value in data set [2] (further heated to about 166° C. and cooled to room temperature) was “transformed into crystalline form B”; in data set [2] (heated to about 148° C.), “transformed into crystalline forms B/D”.
Take `COc1c(C#N)ccc(N2C(=O)C(C)(C)N(c3ccc(C)nc3)C2=S)c1F` [crystalline form D, 4-[4,4-dimethyl-3-(6-methylpyridin-3-yl)-5-oxo-2-thioxoimidazolidin-1-yl]-3-fluoro-2-methoxybenzonitrile]: the “hygroscopicity (conclusion in words)” value in data set [3] (DVS, 0% RH to 80% RH, 25° C.) is recorded as “almost no hygroscopicity”. In addition, in data set [3] (before vs after DVS experiment), the “crystalline form before and after the DVS test (XRPD)” value is given as “maintained the same crystalline form”. Besides, the “water absorbed (moisture absorption, DVS)” value in data set [3] (relative humidity increased from 0% RH to 80% RH, 25° C.) stood at 0.14 wt %. The “Solid crystalline form after one week” value in data set [4] (5° C., sealed (control)) is “Crystalline form D”; in data set [4] (25° C./60% RH, open), “Crystalline form D”; in data set [4] (40° C./75% RH, open), “Crystalline form D”. Besides, the “Purity (Peak area %)” value in data set [4] (5° C., sealed (control)) turned out to be 99.9 Peak area %; in data set [4] (25° C./60% RH, open), 99.9 Peak area %; in data set [4] (40° C./75% RH, open), 99.9 Peak area %. The “Relative purity (%/Control)” value is reported as 100.0 %/Control in data set [4] (25° C./60% RH, open) and 100.0 %/Control in data set [4] (40° C./75% RH, open). Also, in data set [1] (at room temperature), the “relative stability of the crystalline form” value was “more stable than the crystalline forms A/B/C”. The “ratio of AUC(0-t) on day 7 to day 1” value in data set [5] (female SD rats) is reported as 0.942; in data set [5] (male SD rats) it was 1.30. The “accumulation after repeated administration” value in data set [5] (male and female SD rats, 12 mg/kg skin application, 7 days) is “no obvious accumulation”.

The values are drawn from patent publication US20240182442A1, “ANHYDROUS POLYMORPHS OF ANDROGEN RECEPTOR ANTAGONIST, PREPARATION METHOD THEREFOR, AND USE THEREOF” (SUZHOU KINTOR PHARMACEUTICALS, INC., priority 2021, published 2024).
